# Laboratory results from US20260274922A1, “SYNTHETIC ESTROGEN RECEPTOR (ER)-DERIVED PEPTIDE” (THE TEXAS A&M UNIVERSITY SYSTEM, priority 2023, published 2026).
# Where no end group is shown, it is not given here. The star is where a group is joined. FITC = O=C1OC2(c3ccc(O)cc3Oc3cc(O)ccc32)c2ccc(NC(=S)*)cc21
# Columns and labels:
# IRS1 protein domains = target: T1, IRS1 protein domains (Homo sapiens, UniProt P35568); assay: AF1 peptide and IRS1 protein interaction (co-immunoprecipitation, FITC signal); format: binding; conditions: HEK293 cells, 10 μM FITC-labelled peptide 3 h
# T1 construct: expressed in transfected cells; host or cells: HEK293
# T1 sequence (P35568 1-300): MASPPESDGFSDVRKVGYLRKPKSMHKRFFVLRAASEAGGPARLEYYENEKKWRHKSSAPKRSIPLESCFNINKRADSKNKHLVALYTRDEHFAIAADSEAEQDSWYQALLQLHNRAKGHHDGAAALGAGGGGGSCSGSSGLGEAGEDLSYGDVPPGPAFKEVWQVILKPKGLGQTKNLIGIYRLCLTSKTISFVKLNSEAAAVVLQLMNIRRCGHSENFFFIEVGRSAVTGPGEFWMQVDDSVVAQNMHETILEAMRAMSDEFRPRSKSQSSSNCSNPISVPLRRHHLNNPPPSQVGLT
# Experimental: AF1 peptide and IRS1 protein interaction. HEK293 cells were transfected with Flag-IRS1 or Flag-IRS1 truncated domains using lipofectamine 3000 for 30 h, followed by treatment of 10 μM control and AF1 peptides labelled with FITC fluorescence for 3 h. After 10 μM MG132 treatment for 1 h, cell protein was extracted, and Flag-labelled proteins were immunoprecipitated. The intensity of control and AF1 peptide was calculated through measuring FITC fluorescence signal with multiplex reader. The results were normalized using IgG group.
# IRS1 = target: T2, IRS1 (Mus musculus, UniProt P35569); assay: Effect of AF1 peptide on IRS1 phosphorylation at S302 in primary mouse hepatocytes (Western blot); format: cell-based; conditions: WT primary hepatocytes
# T2 construct: increased IRS1 protein levels by 50% (p<0.05) in WT primary hepatocytes; endogenous in cells; host or cells: primary mouse hepatocytes (C57BL/6J background; WT, ERα F/F or ERα LivKO)
# T2 sequence (P35569 1-1233): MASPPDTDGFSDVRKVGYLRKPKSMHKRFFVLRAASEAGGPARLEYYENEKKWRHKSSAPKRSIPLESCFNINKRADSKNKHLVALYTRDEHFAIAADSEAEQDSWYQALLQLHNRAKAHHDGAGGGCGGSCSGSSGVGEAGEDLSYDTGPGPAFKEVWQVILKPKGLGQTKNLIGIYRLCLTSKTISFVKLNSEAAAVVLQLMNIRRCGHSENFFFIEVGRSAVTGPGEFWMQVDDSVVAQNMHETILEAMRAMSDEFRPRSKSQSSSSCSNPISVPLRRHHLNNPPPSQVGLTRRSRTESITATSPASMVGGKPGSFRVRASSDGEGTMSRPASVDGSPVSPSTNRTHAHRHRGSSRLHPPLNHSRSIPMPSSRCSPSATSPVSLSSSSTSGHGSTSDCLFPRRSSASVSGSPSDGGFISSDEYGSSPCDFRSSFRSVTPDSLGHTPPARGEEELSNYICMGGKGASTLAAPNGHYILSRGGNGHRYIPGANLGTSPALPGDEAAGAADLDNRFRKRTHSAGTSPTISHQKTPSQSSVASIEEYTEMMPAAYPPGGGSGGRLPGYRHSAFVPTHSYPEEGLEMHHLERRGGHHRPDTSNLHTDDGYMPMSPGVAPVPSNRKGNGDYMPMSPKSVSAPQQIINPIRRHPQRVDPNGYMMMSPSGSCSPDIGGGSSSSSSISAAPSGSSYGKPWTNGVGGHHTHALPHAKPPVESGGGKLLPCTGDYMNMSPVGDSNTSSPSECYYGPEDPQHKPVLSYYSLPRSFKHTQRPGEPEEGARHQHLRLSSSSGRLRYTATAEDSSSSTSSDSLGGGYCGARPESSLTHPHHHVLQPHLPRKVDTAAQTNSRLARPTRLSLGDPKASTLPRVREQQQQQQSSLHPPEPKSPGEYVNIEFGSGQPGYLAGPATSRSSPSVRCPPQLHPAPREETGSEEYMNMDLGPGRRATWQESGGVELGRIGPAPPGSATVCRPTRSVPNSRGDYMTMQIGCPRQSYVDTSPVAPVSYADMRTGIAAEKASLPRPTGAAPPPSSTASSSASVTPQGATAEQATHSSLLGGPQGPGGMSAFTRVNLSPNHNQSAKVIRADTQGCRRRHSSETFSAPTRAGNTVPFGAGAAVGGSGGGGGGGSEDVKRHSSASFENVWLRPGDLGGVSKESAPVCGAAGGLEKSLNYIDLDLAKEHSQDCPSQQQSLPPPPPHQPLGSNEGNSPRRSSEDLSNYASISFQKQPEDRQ
# Experimental: (§1) Primary hepatocytes isolation and cell culture. Primary hepatocytes were isolated. Male mice at age of 8-12 weeks were infused with a perfusion buffer A (calcium and magnesium-free HBSS supplemented with 10 mM HEPES, […], 1 mM glucose, and 1% penicillin-streptomycin, pH 7.4) through portal vein for 6-8 min. Then perfusion buffer A was changed to buffer B (calcium and magnesium-free HBSS supplemented with 10 mM HEPES, 1 mM CaCl2), 1 mM glucose, 1% penicillin-streptomycin, and 0.5 mg/mL collagenase II, pH 7.4). […] Liver cells were suspended and passed through a 70 μm cell strainer, followed by centrifuge at 1700 rpm for 2 min. Pellets were resuspended with Percoll at final concentration of 36% and centrifuged at 1800 rpm for 6 min. The hepatocyte pellet was washed and suspended with DMEM supplemented with 10% FBS and 1% penicillin-streptomycin in collagen-coated plates. The HepG2 cell line was purchased from Abcam and cultured with DMEM medium supplemented with 10% FBS and 1% penicillin-streptomycin in collagen-coated plates. The human embryo kidney (HEK) 293 cell line was purchased from Sigma and cultured with DMEM medium supplemented with 10% FBS and 1% penicillin-streptomycin. FBS-free DMEM medium was used to culture cells during the experiments.
# (§2) Co-immunoprecipitation and Western blotting analysis. […] Protein bands were detected using a ChemiDoc image system.
# [1] = tested on: insulin signaling (IRS1, pAKT); assay: Insulin sensitivity in WT primary mouse hepatocytes (IRS1, insulin-stimulated AKT phosphorylation); format: cell-based
# Experimental: as §1, §2
# [2] = tested on: insulin signaling (IRS1, pAKT); assay: Insulin sensitivity in ERα deficient primary mouse hepatocytes; format: cell-based
# Experimental: as §1, §2
# 12-month-old female mice = assay: AF1 peptide treatment of aging female mice (12-month-old); format: in vivo, mouse; conditions: 5 mg/kg i.v. twice per week, 5 weeks
# Experimental: Postmenopause in old women is highly associated with increased risk of diabetes.
# Glucose and insulin tolerance tests. For glucose tolerance tests, mice were fasted for 16 h and intraperitoneally (i.p.) injected with dextrose (1 g/kg body weight for mice fed with regular diet; 0.5 g/kg body weight for db/db mice or mice fed with HFD). For insulin tolerance tests, mice were fasted for 6 h and i.p. injected with insulin solution (1 U/kg body weight for male mice; 0.75 U/kg body weight for female mice). Blood glucose levels were measured using glucometer at indicated time points.
# [3] = ERα deficient primary hepatocytes
sequence,measurement,setting,value
YGRKKRRQRRRTKASGMALLHEPLNRPQLKIPLERDSSKPAVYNY ({FITC}-YGRKKRRQRRRTKASGMALLHEPLNRPQLKIPLERDSSKPAVYNY) [AF1 peptide],interaction with IRS1 protein domains,IRS1 protein domains,interacted with the IRS1 1-300 domain
same,decrease in pIRS1-S302,IRS1,75%
same,increase in IRS1 protein levels,IRS1; FIG. 6G,50%
same,enhancement in insulin-stimulated AKT phosphorylation at S473,[1],210%
same,enhancement in insulin-stimulated AKT phosphorylation at T308,[1],82%
same,increase in IRS1 protein levels,[1]; FIG. 6J,90%
same,increase in IRS1 protein levels,[2]; [3],80%
same,increase in pAKT-S473 protein levels,[2]; [3],46%
same,increase in pAKT-T308 protein levels,[2]; [3],50%
same,rescue of ERα deficiency-induced insulin resistance,[2]; compared to ERαF/F hepatocytes,partially rescued
same,glucose tolerance,12-month-old female mice,nonsignificant increase
same,insulin sensitivity,12-month-old female mice,modest improvement
